“And” between values parts separate entries of the source, which are not always exact repeats. Identical values can stand only once. The source made the active and inactive calls.
What was measured:
[1] = target: DNA (cytosine-5)-methyltransferase 1 (Homo sapiens, UniProt P26358); assay: inhibition of DNA methylation by DNMT1 – biochemical, fluorescent molecular beacon, confirmation (AID 602386); assay type: functional
[2] = target: T1, Histone-lysine N-methyltransferase NSD2 (Homo sapiens, UniProt O96028); assay type: biochemical
T1 sequence (O96028 whole entry): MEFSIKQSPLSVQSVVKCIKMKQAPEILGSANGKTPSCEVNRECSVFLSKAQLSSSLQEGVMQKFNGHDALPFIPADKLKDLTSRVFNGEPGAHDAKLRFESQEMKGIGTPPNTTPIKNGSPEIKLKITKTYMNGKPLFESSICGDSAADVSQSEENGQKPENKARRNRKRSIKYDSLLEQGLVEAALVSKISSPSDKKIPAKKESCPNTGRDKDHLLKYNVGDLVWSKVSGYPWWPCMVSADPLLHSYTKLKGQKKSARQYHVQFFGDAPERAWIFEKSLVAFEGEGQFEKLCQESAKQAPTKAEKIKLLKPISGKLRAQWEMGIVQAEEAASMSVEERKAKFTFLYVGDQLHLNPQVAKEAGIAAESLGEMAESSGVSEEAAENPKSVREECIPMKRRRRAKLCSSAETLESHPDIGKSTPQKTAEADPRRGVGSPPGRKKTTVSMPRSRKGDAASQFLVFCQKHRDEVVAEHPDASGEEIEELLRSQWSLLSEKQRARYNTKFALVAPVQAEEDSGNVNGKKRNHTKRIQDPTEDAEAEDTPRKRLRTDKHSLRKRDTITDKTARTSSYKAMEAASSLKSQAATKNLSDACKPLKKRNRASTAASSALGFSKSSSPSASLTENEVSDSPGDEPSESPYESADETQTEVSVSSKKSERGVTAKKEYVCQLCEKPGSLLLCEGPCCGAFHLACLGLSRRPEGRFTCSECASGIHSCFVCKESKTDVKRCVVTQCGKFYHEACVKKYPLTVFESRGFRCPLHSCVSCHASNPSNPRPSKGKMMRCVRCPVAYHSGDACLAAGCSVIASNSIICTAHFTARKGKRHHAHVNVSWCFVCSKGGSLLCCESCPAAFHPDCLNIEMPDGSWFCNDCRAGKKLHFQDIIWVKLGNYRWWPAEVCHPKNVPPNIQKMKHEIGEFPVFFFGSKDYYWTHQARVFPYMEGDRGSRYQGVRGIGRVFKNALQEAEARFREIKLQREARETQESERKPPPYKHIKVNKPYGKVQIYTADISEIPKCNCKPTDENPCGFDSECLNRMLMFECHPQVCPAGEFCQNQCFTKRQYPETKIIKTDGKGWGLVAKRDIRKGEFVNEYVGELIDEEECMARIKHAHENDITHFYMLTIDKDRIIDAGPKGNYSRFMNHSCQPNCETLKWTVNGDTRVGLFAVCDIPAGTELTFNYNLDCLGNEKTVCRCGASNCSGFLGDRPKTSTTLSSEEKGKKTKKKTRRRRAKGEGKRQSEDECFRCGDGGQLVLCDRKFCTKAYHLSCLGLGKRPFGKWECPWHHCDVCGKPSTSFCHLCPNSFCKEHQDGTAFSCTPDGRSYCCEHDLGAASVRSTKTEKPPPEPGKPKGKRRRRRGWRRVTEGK

[3] = target: Multidrug resistance protein CDR2 (Candida albicans (strain SC5314 / ATCC MYA-2876) (Yeast), UniProt P78595); assay: blockers of Nile Red efflux by Candida CDR2 – S. cerevisiae AD1-8u, singleplex, Cherry Pick2 set, dose response (AID 623994); assay type: functional; details: read-out: EC50_MICROM
Multidrug resistance protein CDR2, sequence (P78595 whole entry): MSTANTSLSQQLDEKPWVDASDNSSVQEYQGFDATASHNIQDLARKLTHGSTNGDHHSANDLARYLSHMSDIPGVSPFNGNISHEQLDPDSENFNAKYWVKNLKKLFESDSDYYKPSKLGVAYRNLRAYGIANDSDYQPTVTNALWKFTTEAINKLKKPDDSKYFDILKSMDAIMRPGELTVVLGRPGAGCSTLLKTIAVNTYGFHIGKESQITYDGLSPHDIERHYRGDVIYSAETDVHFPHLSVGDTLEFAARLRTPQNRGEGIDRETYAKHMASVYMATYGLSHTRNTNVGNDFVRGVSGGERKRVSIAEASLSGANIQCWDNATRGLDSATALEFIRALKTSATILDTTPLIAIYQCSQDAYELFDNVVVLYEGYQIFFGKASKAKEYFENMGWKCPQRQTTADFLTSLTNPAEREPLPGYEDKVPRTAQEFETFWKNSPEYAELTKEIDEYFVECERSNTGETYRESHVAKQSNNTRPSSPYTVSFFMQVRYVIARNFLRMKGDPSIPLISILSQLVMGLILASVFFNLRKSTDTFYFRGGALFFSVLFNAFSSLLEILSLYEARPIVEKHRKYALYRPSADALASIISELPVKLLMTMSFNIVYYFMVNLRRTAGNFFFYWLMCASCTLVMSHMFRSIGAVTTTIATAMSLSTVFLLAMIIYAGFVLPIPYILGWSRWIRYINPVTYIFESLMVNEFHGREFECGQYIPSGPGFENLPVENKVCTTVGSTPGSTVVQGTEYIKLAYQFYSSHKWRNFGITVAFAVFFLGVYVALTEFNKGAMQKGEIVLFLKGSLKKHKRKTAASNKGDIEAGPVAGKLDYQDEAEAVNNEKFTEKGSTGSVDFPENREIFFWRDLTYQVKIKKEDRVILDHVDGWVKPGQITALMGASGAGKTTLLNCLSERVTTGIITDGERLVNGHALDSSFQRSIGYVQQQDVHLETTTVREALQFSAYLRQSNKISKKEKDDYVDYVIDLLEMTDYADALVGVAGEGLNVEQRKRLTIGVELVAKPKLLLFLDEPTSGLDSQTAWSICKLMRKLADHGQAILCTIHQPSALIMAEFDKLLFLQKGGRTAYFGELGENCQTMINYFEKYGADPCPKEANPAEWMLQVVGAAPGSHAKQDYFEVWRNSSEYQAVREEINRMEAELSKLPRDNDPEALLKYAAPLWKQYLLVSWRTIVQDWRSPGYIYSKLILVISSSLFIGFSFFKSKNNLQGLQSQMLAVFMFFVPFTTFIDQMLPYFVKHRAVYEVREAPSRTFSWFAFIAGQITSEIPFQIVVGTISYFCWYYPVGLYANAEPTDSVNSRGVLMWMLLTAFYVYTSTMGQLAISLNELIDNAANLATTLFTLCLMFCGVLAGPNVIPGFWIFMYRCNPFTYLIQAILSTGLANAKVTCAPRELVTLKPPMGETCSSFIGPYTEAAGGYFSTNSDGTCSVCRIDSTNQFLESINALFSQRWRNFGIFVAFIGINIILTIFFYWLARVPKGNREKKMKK

[4] = target: T2, Apoptotic protease-activating factor 1 (Homo sapiens, UniProt O14727); assay: SAR analysis of small molecule Activators of Apaf-1 in a Fluorescent assay.; assay type: functional; details: read-out: EC50_Mean;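 further: caspase-3 cleavage of fluorogenic Rh110 DEVD substrate downstream of apoptosome activation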
T2 sequence (O14727 whole entry): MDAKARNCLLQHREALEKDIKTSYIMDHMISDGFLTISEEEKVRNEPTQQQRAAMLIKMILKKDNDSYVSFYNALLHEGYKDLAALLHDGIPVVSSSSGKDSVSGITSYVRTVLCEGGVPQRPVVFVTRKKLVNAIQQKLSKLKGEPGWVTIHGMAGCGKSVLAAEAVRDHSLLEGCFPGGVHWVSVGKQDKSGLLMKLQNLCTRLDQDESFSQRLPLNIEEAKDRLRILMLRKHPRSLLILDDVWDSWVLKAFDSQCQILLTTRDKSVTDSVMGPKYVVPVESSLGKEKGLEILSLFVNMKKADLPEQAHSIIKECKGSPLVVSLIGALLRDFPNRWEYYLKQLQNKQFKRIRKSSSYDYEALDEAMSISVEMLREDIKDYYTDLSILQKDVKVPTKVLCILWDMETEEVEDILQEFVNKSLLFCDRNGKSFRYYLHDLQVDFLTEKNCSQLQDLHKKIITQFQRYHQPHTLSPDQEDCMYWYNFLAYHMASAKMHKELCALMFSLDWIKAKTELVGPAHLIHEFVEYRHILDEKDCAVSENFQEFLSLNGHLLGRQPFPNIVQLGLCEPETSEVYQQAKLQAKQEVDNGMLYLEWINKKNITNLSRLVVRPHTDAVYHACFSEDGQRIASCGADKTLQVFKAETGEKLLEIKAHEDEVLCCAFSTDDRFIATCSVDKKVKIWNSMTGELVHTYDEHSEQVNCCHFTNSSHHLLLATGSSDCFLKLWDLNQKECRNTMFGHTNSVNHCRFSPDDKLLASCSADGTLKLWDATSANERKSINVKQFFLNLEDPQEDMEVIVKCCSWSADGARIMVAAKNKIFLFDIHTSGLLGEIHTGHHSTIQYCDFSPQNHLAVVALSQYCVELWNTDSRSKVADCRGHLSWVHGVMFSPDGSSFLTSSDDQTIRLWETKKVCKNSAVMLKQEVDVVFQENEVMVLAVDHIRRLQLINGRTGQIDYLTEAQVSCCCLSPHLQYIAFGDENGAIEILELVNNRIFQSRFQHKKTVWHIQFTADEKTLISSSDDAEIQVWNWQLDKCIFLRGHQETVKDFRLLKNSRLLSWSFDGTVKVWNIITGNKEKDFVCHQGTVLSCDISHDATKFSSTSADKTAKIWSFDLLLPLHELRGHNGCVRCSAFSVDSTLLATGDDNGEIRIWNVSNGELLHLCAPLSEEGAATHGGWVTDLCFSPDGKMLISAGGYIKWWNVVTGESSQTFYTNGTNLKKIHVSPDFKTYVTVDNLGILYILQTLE

[5] = target: Ras and Rab interactor 1/Tyrosine-protein kinase ABL1 (Homo sapiens, UniProt P00519+Q13671); assay type: functional;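 further: biochemical TR-FRET dose-response test measuring inhibition of binding between Rin1 and Abl proteins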
[6] = target: DNA dC->dU-editing enzyme APOBEC-3G (Homo sapiens, UniProt Q9HC16); assay: inhibition of APOBEC3G ssDNA deamination – biochemical, fluorescence, single-stranded DNA substrate, SAR follow-up (AID 602136); assay type: functional; details: read-out: IC50_Mean
DNA dC->dU-editing enzyme APOBEC-3G, sequence (Q9HC16 whole entry): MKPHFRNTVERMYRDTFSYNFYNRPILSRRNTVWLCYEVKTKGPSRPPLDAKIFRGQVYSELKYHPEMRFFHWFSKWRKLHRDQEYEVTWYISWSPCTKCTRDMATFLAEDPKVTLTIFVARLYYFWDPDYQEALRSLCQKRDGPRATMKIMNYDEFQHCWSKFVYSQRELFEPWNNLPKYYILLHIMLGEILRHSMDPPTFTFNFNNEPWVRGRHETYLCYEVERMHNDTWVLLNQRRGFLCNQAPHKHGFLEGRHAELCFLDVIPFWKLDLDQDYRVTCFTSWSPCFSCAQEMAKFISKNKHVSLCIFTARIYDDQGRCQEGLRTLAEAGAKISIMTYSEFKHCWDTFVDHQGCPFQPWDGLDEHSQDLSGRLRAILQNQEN

[7] = target: DNA dC->dU-editing enzyme APOBEC-3A (Homo sapiens, UniProt P31941); assay: SAR analysis of small molecule inhibitors of APOBEC3A DNA Deaminase via a fluorescence-based single-stranded DNA deaminase assay.; assay type: functional; details: read-out: IC50_Mean
DNA dC->dU-editing enzyme APOBEC-3A, sequence (P31941 whole entry): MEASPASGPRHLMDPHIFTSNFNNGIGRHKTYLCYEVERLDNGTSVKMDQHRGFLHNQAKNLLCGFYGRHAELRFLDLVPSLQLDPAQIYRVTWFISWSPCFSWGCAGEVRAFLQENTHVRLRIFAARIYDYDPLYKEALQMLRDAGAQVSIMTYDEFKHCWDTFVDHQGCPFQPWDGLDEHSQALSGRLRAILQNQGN

[8] = target: Dual specificity tyrosine-phosphorylation-regulated kinase 1B (Homo sapiens, UniProt Q9Y463); assay: Navigating the Kinome. Panel member name: DYRK1B; assay type: functional
[9] = target: Serine/threonine-protein kinase 3 (Homo sapiens, UniProt Q13188); assay type: functional;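 further: measured as one member of a kinome-wide kinase panel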
Serine/threonine-protein kinase 3, sequence (Q13188 whole entry): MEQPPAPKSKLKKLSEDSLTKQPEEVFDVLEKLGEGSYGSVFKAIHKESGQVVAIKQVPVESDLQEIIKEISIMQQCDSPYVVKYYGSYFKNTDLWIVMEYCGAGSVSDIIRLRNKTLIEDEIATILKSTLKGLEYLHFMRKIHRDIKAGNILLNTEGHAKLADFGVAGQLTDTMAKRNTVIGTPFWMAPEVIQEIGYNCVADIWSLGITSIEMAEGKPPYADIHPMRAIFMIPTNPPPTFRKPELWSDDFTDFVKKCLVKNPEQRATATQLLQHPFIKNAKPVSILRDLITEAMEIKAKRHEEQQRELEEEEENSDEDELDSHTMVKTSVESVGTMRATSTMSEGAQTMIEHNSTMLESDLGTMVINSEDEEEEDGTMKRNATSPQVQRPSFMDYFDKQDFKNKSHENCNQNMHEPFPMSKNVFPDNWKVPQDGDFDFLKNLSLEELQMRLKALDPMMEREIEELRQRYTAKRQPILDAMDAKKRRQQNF

[10] = target: Mitogen-activated protein kinase 13 (Homo sapiens, UniProt O15264); assay type: functional
Mitogen-activated protein kinase 13, sequence (O15264 whole entry): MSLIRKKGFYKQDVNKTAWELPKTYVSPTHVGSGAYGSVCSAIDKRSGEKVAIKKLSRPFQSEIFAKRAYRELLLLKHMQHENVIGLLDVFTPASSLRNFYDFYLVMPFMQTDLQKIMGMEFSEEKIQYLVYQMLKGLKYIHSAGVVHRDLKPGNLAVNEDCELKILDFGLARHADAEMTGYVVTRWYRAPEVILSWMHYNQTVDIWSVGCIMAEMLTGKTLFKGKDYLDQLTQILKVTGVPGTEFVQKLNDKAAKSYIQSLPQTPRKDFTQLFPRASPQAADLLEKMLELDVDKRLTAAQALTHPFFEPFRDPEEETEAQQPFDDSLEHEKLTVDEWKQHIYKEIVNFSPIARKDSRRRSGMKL

[11] = target: Serine/threonine-protein kinase PLK3 (Homo sapiens, UniProt Q9H4B4); assay type: functional
[12] = target: Casein kinase II subunit alpha (Homo sapiens, UniProt P68400); assay type: functional
Casein kinase II subunit alpha, sequence (P68400 whole entry): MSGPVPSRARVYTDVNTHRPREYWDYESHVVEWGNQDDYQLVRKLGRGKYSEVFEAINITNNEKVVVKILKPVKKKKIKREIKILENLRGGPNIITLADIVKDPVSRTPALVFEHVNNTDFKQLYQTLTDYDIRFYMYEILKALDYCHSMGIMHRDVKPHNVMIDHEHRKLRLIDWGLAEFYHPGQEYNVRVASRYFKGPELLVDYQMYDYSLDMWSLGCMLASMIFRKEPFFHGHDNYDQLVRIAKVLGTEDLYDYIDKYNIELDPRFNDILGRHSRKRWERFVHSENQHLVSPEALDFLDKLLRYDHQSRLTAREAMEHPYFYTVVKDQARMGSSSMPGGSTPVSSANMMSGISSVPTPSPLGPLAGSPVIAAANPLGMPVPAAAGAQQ

[13] = THP-1 cell cytotoxicity, cytotoxicity control, set 4 (AID 504911); assay type: functional; details: Mycobacterium tuberculosis
[14] = THP-1 cell cytotoxicity, dose response, cytotoxicity control, set 3 (AID 504852); assay type: functional; details: Mycobacterium tuberculosis
[15] = Vero cell cytotoxicity, dose response, cytotoxicity control for M. tuberculosis growth inhibitor project, Vero cells, purified and synthesized compounds, set 4 (AID 504854); assay type: functional; details: Mycobacterium tuberculosis
[16] = target: T3, Mitochondrial peptide methionine sulfoxide reductase (Bos taurus, UniProt P54149); assay: Absorbance-based biochemical high throughput dose response assay for activators of Methionine sulfoxide reductase A (MsrA).; assay type: functional
T3 sequence (P54149 whole entry): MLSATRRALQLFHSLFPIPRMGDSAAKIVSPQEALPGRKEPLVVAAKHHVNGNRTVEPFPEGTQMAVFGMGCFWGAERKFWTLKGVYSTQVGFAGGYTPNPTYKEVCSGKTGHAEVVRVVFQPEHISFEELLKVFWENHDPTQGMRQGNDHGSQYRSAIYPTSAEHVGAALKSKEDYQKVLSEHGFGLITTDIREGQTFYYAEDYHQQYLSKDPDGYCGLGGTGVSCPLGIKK

DNA (cytosine-5)-methyltransferase 1, sequence (P26358 whole entry): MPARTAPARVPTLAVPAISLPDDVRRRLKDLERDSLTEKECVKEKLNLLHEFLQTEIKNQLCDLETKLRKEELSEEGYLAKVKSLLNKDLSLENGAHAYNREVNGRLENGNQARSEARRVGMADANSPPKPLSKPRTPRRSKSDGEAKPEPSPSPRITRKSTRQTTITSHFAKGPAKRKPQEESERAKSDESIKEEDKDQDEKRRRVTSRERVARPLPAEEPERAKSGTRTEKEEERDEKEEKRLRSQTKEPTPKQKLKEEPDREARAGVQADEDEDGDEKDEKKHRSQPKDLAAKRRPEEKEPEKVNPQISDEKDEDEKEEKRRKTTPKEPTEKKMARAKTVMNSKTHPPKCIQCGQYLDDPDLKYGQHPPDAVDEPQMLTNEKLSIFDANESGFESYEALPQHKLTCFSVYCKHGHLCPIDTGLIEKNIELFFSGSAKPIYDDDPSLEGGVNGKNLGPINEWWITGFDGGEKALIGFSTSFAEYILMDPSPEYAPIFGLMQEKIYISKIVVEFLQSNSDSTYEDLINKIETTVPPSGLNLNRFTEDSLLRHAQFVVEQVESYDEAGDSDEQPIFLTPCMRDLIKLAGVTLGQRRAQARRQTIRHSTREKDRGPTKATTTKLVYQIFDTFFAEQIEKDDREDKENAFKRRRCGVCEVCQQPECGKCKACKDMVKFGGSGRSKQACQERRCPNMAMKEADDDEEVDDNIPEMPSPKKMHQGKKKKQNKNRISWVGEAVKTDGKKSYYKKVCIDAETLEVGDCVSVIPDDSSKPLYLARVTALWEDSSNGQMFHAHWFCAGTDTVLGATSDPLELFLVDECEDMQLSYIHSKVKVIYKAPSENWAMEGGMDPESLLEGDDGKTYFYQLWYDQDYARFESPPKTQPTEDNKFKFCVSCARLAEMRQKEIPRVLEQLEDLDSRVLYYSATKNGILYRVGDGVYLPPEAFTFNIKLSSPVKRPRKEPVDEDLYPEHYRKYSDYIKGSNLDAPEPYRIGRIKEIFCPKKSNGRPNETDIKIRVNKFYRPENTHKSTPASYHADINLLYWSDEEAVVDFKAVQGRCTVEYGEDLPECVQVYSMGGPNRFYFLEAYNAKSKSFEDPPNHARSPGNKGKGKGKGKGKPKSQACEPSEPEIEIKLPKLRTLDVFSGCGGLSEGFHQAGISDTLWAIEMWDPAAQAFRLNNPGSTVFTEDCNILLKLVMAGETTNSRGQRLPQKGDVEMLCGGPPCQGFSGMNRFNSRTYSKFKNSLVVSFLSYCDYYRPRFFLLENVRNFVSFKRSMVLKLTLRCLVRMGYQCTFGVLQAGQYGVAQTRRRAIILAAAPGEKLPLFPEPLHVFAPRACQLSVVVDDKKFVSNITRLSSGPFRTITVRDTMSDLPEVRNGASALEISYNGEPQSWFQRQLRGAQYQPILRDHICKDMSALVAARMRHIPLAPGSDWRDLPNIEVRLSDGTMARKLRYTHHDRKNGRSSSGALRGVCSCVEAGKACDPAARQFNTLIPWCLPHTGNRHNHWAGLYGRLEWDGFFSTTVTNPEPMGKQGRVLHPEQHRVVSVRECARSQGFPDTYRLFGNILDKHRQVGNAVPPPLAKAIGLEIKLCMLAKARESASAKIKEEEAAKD

## N=C1/C(=C/c2coc3ccccc3c2=O)C(=O)N=C2SC(c3ccco3)=NN12
[1]
  IC50: 11.6 µM (active)
[2]
  AC50: 4.93 µM (active)

## O=C(NCCC1=CCCCC1)C1CCC(CNc2[nH]c(=S)nc3ccccc23)CC1 (stereo not drawn)
[3]
  EC50: 72.6 µM (active)

## COc1ccc(C)c(NCC(C)C(=O)O)c1 (stereo not drawn)
[4]
  EC50: > 100 µM (inactive)

## CC[C@]12c3[nH]c4ccc(OC)cc4c3CCN1C(=O)C(CC(=O)NCc1cccc(C(F)(F)F)c1)C[C@@H]2C(=O)N1CCN(C(=O)c2ccco2)CC1 (stereo partly drawn)
[5]
  IC50: 20.1 µM (inactive)

## c1cncc(-c2nc3sc4c(c3c3nncn23)CCCC4)c1
[6]
  IC50: > 99 µM (inactive)
[7]
  IC50: > 99 µM (inactive)

## CC(Oc1cc(-c2cnn(C3CCNCC3)c2)cnc1N)c1c(Cl)ccc(F)c1Cl (stereo not drawn)
[8]
  Ki: > 2.51 µM (inactive)
[9]
  Ki: 3.16 µM (active) and 794 nM (active)

## CCOc1nc(NC(=O)Cc2cc(OC)ccc2OC)cc(N)c1C#N
[10]
  Ki: > 7.94 µM (inactive)

## Nc1csc(Nc2ccccc2)n1
[11]
  Ki: 2.51 µM (active)
[12]
  Ki: 10 µM (active)

## CC(Sc1nc2ccccc2c(=O)[nH]1)C(=O)NC1CCCCC1 (stereo not drawn)
[13]
  CC50: > 100 µM (active)
[14]
  CC50: > 100 µM (active)
[15]
  CC50: > 100 µM (active)

## O=C(NC1CCCCC1)c1nn2c(C(F)(F)F)cc(-c3ccc(Br)cc3)nc2c1Cl
[6]
  IC50: > 99 µM (inactive)
[7]
  IC50: > 99 µM (inactive)

## O=c1[nH]c(=S)[nH]cc1Oc1ccc(Cl)cc1
[16]
  EC50: > 104 µM (inactive)

— ChEMBL document CHEMBL1201862, “PubChem BioAssay data set” (2004)
